{"source": "paper PMC7939473", "about": "“Unique active-site and subsite features in the arabinogalactan-degrading GH43 exo-β-1,3-galactanase from Phanerochaete chrysosporium” (The Journal of Biological Chemistry, 2021)", "molecular_target": "T1, Pc1,3Gal43A (Phanerodontia chrysosporium, UniProt Q50KB2, E208A)", "T1 construct": "signal peptide removed; Gln21-Tyr448 (428 residues) plus two extra N-terminal residues Glu19-Phe20 from restriction site; GH43_sub24 catalytic domain (21-325) + CBM35 (326-448); expressed in Pichia pastoris, N-glycosylated at Asn79, Asn194, Asn389; monomer in solution", "T1 sequence (Q50KB2 entry or part of it E208A)": "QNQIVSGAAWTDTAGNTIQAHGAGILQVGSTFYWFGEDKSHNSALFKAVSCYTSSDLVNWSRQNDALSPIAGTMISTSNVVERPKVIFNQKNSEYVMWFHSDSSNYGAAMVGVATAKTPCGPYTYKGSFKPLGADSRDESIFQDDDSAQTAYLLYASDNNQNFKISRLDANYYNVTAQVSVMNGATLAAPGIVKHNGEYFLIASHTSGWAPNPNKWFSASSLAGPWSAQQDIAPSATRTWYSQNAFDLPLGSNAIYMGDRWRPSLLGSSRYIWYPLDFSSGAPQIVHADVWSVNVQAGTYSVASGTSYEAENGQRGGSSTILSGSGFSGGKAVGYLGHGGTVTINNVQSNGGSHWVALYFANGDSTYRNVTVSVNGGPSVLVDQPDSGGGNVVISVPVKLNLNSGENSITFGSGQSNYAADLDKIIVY", "assay": "X-ray crystallography (co-crystal, […] Å)", "settings": "ligand-binding site of the CBM35 domain (not in catalytic site); 10 mM Gal3; pH 4.5"}
{"compound": "OC[C@H]1O[C@@H](O[C@H]2[C@@H](O)[C@@H](CO)O[C@@H](O[C@H]3[C@@H](O)[C@@H](CO)OC(O)[C@@H]3O)[C@@H]2O)[C@H](O)[C@@H](O)[C@H]1O", "note": "(stereo partly drawn) [Gal3, β-1,3-galactotriose]", "values": [{"measurement": "X-ray crystallography (co-crystal, 2.3 Å)", "value": "In E208A_Gal3, electron density of Gal3 was observed in the ligand-binding site of PcCBM35"}]}
